According to US11046713B2, “Androgen receptor modulating compounds” (ORION CORPORATION, priority 2009, dated 2021):

tested on: VCaP prostate cancer cell line; experiment: Inhibition of mibolerone-induced VCaP cell proliferation (WST-1); type: cell-based; settings: Homo sapiens, VCaP, mibolerone-induced (usually 0.1 nM), 4-5 days
Description: The IC50 value of the test compound for inhibition of mibolerone-induced VCaP cell proliferation was measured.
Cell Proliferation Assays
The ability of test compounds to inhibit prostate cancer cell growth was studied by measuring inhibition of cell proliferation using androgen-sensitive VCaP prostate cancer cell line. […] Cell proliferation was measured using WST-1 Cell Proliferation Assay (Roche).

Row | SMILES | IC50
1 | Cc1nc(-c2cc(C(=O)N[C@@H](C)Cn3ccc(-c4ccc(C#N)c(Cl)c4)n3)n[nH]2)cs1 [Example 94, (S)—N-(1-(3-(3-chloro-4-cyanophenyl)-1H-pyrazol-1-yl)propan-2-yl)-5-(2-methylthiazol-4-yl)-1H-pyrazole-3-carboxamide] | 790 nM
2 | N#Cc1ccc(-c2ccn(CCNC(=O)c3cc(-c4cccnc4)n[nH]3)n2)cc1C#N [Example 52, N-(2-(3-(3,4-dicyanophenyl)-1H-pyrazol-1-yl)ethyl)-3-(pyridin-3-yl)-1H-pyrazole-5-carboxamide] | 450 nM
3 | C[C@@H](Cn1ccc(-c2ccc(C#N)c(Cl)c2)n1)NC(=O)c1csc(-c2cn[nH]c2)n1 [Example 206, (S)—N-(1-(3-(3-chloro-4-cyanophenyl)-1H-pyrazol-1-yl)propan-2-yl)-2-(1H-pyrazol-4-yl)thiazole-4-carboxamide] | 490 nM
4 | Cc1nc(C(=O)N[C@@H](C)Cn2ccc(-c3cc(F)c(C#N)c(Cl)c3)n2)c[nH]1 [Example 249, (S)—N-{1-[3-(3-Chloro-4-cyano-5-fluorophenyl)-1H-pyrazol-1-yl]propan-2-yl}-2-methyl-1H-imidazole-4-carboxamide] | 320 nM
5 | Cc1c(-c2ccn(C[C@H](C)NC(=O)c3csc(C(C)O)n3)n2)ccc(C#N)c1Cl (stereo partly drawn) [Example 186, N—((S)-1-(3-(3-chloro-4-cyano-2-methylphenyl)-1H-pyrazol-1-yl)propan-2-yl)-2-(1-hydroxyethyl)thiazole-4-carboxamide] | 310 nM
6 | Cc1cc(-c2ccn(C[C@H](C)NC(=O)c3cc(-c4ccco4)n[nH]3)n2)ccc1C#N [Example 32, (S)—N-(1-(3-(4-cyano-3-methylphenyl)-1H-pyrazol-1-yl)propan-2-yl)-3-(furan-2-yl)-1H-pyrazole-5-carboxamide] | 560 nM
7 | C[C@@H](Cn1ccc(-c2ccc(C#N)c(Cl)c2)n1)NC(=O)c1[nH]nc2c1COCC2 [Example 338, (S)—N-(1-(3-(3-chloro-4-cyanophenyl)-1H-pyrazol-1-yl)propan-2-yl)-2,4,6,7-tetrahydropyrano [4,3-c]pyrazole-3-carboxamide] | 340 nM
8 | Cc1noc(C(=O)N[C@@H](C)Cn2ccc(-c3ccc(C#N)c(Cl)c3)n2)n1 [Example 103, (S)—N-(1-(3-(3-chloro-4-cyanophenyl)-1H-pyrazol-1-yl)propan-2-yl)-3-methyl-1,2,4-oxadiazole-5-carboxamide] | 230 nM
9 | CCc1noc(C(=O)N[C@@H](C)Cn2ccc(-c3ccc(C#N)c(Cl)c3)n2)n1 [Example 91, (S)—N-(1-(3-(3-chloro-4-cyanophenyl)-1H-pyrazol-1-yl)propan-2-yl)-3-ethyl-1,2,4-oxadiazole-5-carboxamide] | 330 nM
10 | O=C(NCCc1ccc(-c2ccc(Cl)c(Cl)c2)o1)c1cc(C(=O)N2CCOCC2)n[nH]1 [Example 8, N-(2-(5-(3,4-dichlorophenyl)furan-2-yl)ethyl)-3-(morpholine-4-carbonyl)-1H-pyrazole-5-carboxamide] | 1600 nM
11 | C[C@H](CNC(=O)c1csc(CC#N)n1)n1ccc(-c2cc(F)c(C#N)c(F)c2)n1 [Example 222, (R)—N-(2-(3-(4-cyano-3,5-difluorophenyl)-1H-pyrazol-1-yl)propyl)-2-(cyanomethyl)thiazole-4-carboxamide] | 250 nM
12 | C[C@@H](Cn1ccc(-c2cc(F)c(C#N)c(Cl)c2)n1)NC(=O)c1cn2cccnc2n1 [Example 324, (S)—N-(1-(3-(3-chloro-4-cyano-5-fluorophenyl)-1H-pyrazol-1-yl)propan-2-yl)imidazo [1,2-a]pyrimidine-2-carboxamide] | 1000 nM
13 | Cc1cc(-c2ccn(CCNC(=O)c3cc(-c4cccnc4)n[nH]3)n2)ccc1C#N [Example 53, N-(2-(3-(4-cyano-3-methylphenyl)-1H-pyrazol-1-yl)ethyl)-3-(pyridin-3-yl)-1H-pyrazole-5-carboxamide] | 500 nM
14 | CC(O)c1cc(C(=O)N[C@@H](C)Cn2ccc(-c3ccc(C#N)c(Cl)c3)n2)no1 (stereo partly drawn) [Example 124, N—((S)-1-(3-(3-chloro-4-cyanophenyl)-1H-pyrazol-1-yl)propan-2-yl)-5-(1-hydroxyethyl)isoxazole-3-carboxamide] | 430 nM
15 | C[C@H](Cn1ccc(-c2ccc(C#N)c(Cl)c2)n1)NC(=O)c1csc(N2CCOCC2)n1 [Example 132, (R)—N-(1-(3-(3-chloro-4-cyanophenyl)-1H-pyrazol-1-yl)propan-2-yl)-2-morpholinothiazole-4-carboxamide] | 210 nM

same assay, conditions: mibolerone-induced (usually 0.1 nM), 4-5 days

Row | SMILES | IC50
16 | Cc1nc(C(=O)N[C@@H](C)Cn2ccc(-c3ccc(C#N)c(Cl)c3)n2)c[nH]1 [Example 248, (S)—N-{1-[3-(3-Chloro-4-cyanophenyl)-1H-pyrazol-1-yl]propan-2-yl}-2-methyl-H-imidazole-4-carboxamide] | 490 nM
